Measurements reported in PubChem BioAssay AID1963842 (Molecular Pharmacology Branch, DTP, NCI, 2024).

System: 677734-321-R-J1-PDC complex spheroid viability
Assay: Anticancer human tumor 677734-321-R-J1-PDC patient-derived soft tissue sarcoma cell line growth inhibition [POLQ]
Conditions: for IC50: curve of first compound; for viability, T/C: stronger effect = lower value
Description: Multicellular complex tumor spheroid response to Polymerase (POL) inhibitors (novobiocin, ART-558, RP6685) in combination with a variety of drugs and investigational agents in selected tumor cell lines
The POL inhibitors (novobiocin, ART-558, and RP6685) were evaluated both individually and in combination with standard of care and investigational anticancer small molecules within a complex spheroid model of solid tumors. . Complex spheroids include a stromal component modeled by human endothelial cells (HUVEC) and fibroblasts modeled by human mesenchymal stem cells (MSCs). The concentration ranges selected for each drug and investigational agent were based upon clinically achievable concentrations if the clinical Cmax of the agent was known.
Compounds. The drugs and investigational agents: novobiocin (NSC847541), ART-558 (NSC835418), RP-6685 (NSC848927), peposertib (NSC802822), ceralasertib (NSC780249), elimusertib (NSC800525), camonsertib (NSC841442), AZD-1390 (NSC803789), olaparib (NSC753686), talazoparib (NSC767125), rucaparib (NSC756644), sotorasib (NSC818433), MRTX-1133 (NSC836407), SN-38 (NSC673596), topotecan (NSC609699), epotoside (NSC141540), doxorubicin (NSC123127), gemcitabine (NSC613327), 5-fluorouracil (NSC19893), paclitaxel (NSC125973), vemurafenib (NSC761431), MSA-2 (NSC828583), SN-011 (NSC837082), adavosertib (NSC754352), prexasertib (NSC758257), carboplatin (NSC241240) and oxaliplatin (NSC266046), were obtained from the National Cancer Institute (NCI) Developmental Therapeutics Program Chemical Repository (21). The FDA-approved anticancer drug set is available from the Developmental Therapeutics Program at https://dtp.cancer.gov/organization/dscb/obtaining/. […] The stock solutions were prepared in dimethyl sulfoxide (DMSO, Sigma-Aldrich, St. Louis, MO, cat. D2650), except for the platinum compounds which were prepared in saline (Quality Biological, Gaithersburg, MD, cat. 114-055-101), at 800-fold the tested concentration and stored at -70 degrees C prior to their use. All drugs and investigational agents were tested over a range starting from a high concentration at or near the clinical Cmax and decreasing in half-log increments. If the clinical Cmax for an agent had not been determined, the highest concentration tested was 10 microM, except for SN-38, which was tested at a high concentration of 1 microM.
Cell Culture. All cells were maintained in an incubator at 37 degrees C and 5% CO2 with 95% humidity. The PDC lines were cultured according to standard operating procedures established by the NCI PDMR (https://pdmr.cancer.gov). Table 3 of the manuscript, lists the cell lines along with the number of the three cell types plated to form the mct-spheroids and media for tumor cell growth. After thawing, all PDC lines, except 997537-175-T-J1-PDC and 415267-285-R-J2-PDC, were cultured in Matrigel-coated flasks prepared with a working solution of 1X Ham's F-12 nutrient mix, without supplementation (Thermo Fisher Scientific, cat. 11765054), 100 U/mL penicillin-streptomycin (Thermo Fisher Scientific, cat. 15140122), and 2.5% Matrigel (Corning Inc., Corning, NY, cat. 354248) for the first three passages. The two PDC lines 997537-175-T-J1-PDC and 415267-285-R-J2-PDC were cultured on uncoated flasks. The 857933-349-R-J2-PDC line was cultured in 6C/Colon 1B media containing advanced DMEM/F-12 (Thermo Fisher Scientific, cat. 12634028), 10 mM HEPES (Thermo Fisher Scientific, cat. 15630080), 1X GlutaMAX supplement (Thermo Fisher Scientific, cat. 35050061), 0.1 mg/mL primocin (InvivoGen, San Diego, CA, cat. ant-pm-2), 10% defined fetal bovine serum, heat inactivated (HyClone Laboratories Inc., Logan, UT, cat. SH30070.03HI), 50% L-WRN conditioned media (ATCC, cat. CRL-3276), 1.25 mM N-Acetyl-L-cysteine (Sigma-Aldrich, cat. A9165), 10 mM nicotinamide (Sigma-Aldrich, cat. N0636), 1X B-27 supplement (Thermo Fisher Scientific, cat. 17504044), 1X N-2 supplement (Thermo Fisher Scientific, cat. […]

[1] = second compound 0.0316 µM, first compound 0.0316 µM
[2] = second compound 0.0316 µM, first compound 0.1 µM
[3] = second compound 0.0316 µM, first compound 0.316 µM
[4] = second compound 0.0316 µM, first compound 1 µM
[5] = second compound 0.0316 µM, first compound 3.16 µM
[6] = second compound 0.0316 µM, first compound 10 µM
[7] = second compound 0.1 µM, first compound 0.0316 µM
[8] = second compound 0.1 µM, first compound 0.1 µM
[9] = second compound 0.1 µM, first compound 0.316 µM
[10] = second compound 0.1 µM, first compound 1 µM
[11] = second compound 0.1 µM, first compound 3.16 µM
[12] = second compound 0.1 µM, first compound 10 µM
[13] = second compound 0.316 µM, first compound 0.0316 µM
[14] = second compound 0.316 µM, first compound 0.1 µM
[15] = second compound 0.316 µM, first compound 0.316 µM
[16] = second compound 0.316 µM, first compound 1 µM
[17] = second compound 0.316 µM, first compound 3.16 µM
[18] = second compound 0.316 µM, first compound 10 µM
[19] = second compound 1 µM, first compound 0.0316 µM
[20] = second compound 1 µM, first compound 0.1 µM
[21] = second compound 1 µM, first compound 0.316 µM
[22] = second compound 1 µM, first compound 1 µM
[23] = second compound 1 µM, first compound 3.16 µM
[24] = second compound 1 µM, first compound 10 µM
[25] = second compound 3.16 µM, first compound 0.0316 µM
[26] = second compound 3.16 µM, first compound 0.1 µM
[27] = second compound 3.16 µM, first compound 0.316 µM
[28] = second compound 3.16 µM, first compound 1 µM
[29] = second compound 3.16 µM, first compound 3.16 µM
[30] = second compound 3.16 µM, first compound 10 µM
[31] = second compound 10 µM, first compound 0.0316 µM
[32] = second compound 10 µM, first compound 0.1 µM
[33] = second compound 10 µM, first compound 0.316 µM
[34] = second compound 10 µM, first compound 1 µM
[35] = second compound 10 µM, first compound 3.16 µM
[36] = second compound 10 µM, first compound 10 µM
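Also: spheroids exposed to compounds for one week.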
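For viability, T/C in this document: 100% = vehicle DMSO treated spheroids.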

Structure (SMILES): C#Cc1c(F)ccc2cc(O)cc(-c3ncc4c(N5CC6CCC(C5)N6)nc(OCC56CCCN5CC(F)C6)nc4c3F)c12 (centres undefined) + Cc1cccc(N(C)C(=O)C2C(O)CCN2c2nc(C)cc(C(F)(F)F)c2C#N)c1
- IC50 (second compound 0.0316 µM): > 10 µM
- IC50 (second compound 0.1 µM): > 10 µM
- IC50 (second compound 0.316 µM): > 10 µM
- IC50 (second compound 1 µM): > 10 µM
- IC50 (second compound 3.16 µM): > 10 µM
- IC50 (second compound 10 µM): > 10 µM
- viability, T/C [1]: 110%
- viability, T/C [2]: 101%
- viability, T/C [3]: 108%
- viability, T/C [4]: 103%
- viability, T/C [5]: 101%
- viability, T/C [6]: 102%
- viability, T/C [7]: 111%
- viability, T/C [8]: 106%
- viability, T/C [9]: 105%
- viability, T/C [10]: 100%
- viability, T/C [11]: 106%
- viability, T/C [12]: 107%
- viability, T/C [13]: 118%
- viability, T/C [14]: 97.5%
- viability, T/C [15]: 100%
- viability, T/C [16]: 100%
- viability, T/C [17]: 110%
- viability, T/C [18]: 104%
- viability, T/C [19]: 105%
- viability, T/C [20]: 97%
- viability, T/C [21]: 109%
- viability, T/C [22]: 100%
- viability, T/C [23]: 107%
- viability, T/C [24]: 102%
- viability, T/C [25]: 98.1%
- viability, T/C [26]: 102%
- viability, T/C [27]: 103%
- viability, T/C [28]: 109%
- viability, T/C [29]: 101%
- viability, T/C [30]: 107%
- viability, T/C [31]: 99.9%
- viability, T/C [32]: 104%
- viability, T/C [33]: 107%
- viability, T/C [34]: 99.2%
- viability, T/C [35]: 103%
- viability, T/C [36]: 98.8%

Structure (SMILES): CCc1cc2c(N3CCc4c(cc(Cn5ccnc5)cc4-c4cn(C)nc4C(F)(F)F)C3=O)ccnc2c(OC)n1 + Cc1cccc(N(C)C(=O)C2C(O)CCN2c2nc(C)cc(C(F)(F)F)c2C#N)c1
- IC50 (second compound 0.0316 µM): > 10 µM
- IC50 (second compound 0.1 µM): 9.08 µM
- IC50 (second compound 0.316 µM): 5.19 µM
- IC50 (second compound 1 µM): 7.18 µM
- IC50 (second compound 3.16 µM): 4.89 µM
- IC50 (second compound 10 µM): 1.98 µM
- viability, T/C [1]: 104%
- viability, T/C [2]: 94.4%
- viability, T/C [3]: 86.5%
- viability, T/C [4]: 96.9%
- viability, T/C [5]: 60.5%
- viability, T/C [6]: 58.8%
- viability, T/C [7]: 113%
- viability, T/C [8]: 104%
- viability, T/C [9]: 99.4%
- viability, T/C [10]: 84%
- viability, T/C [11]: 59.7%
- viability, T/C [12]: 49.7%
- viability, T/C [13]: 100%
- viability, T/C [14]: 110%
- viability, T/C [15]: 92.3%
- viability, T/C [16]: 85.8%
- viability, T/C [17]: 59.8%
- viability, T/C [18]: 36.5%
- viability, T/C [19]: 94.7%
- viability, T/C [20]: 79%
- viability, T/C [21]: 100%
- viability, T/C [22]: 77.8%
- viability, T/C [23]: 75.1%
- viability, T/C [24]: 40.2%
- viability, T/C [25]: 110%
- viability, T/C [26]: 79.9%
- viability, T/C [27]: 93.2%
- viability, T/C [28]: 76.1%
- viability, T/C [29]: 64.6%
- viability, T/C [30]: 31.6%
- viability, T/C [31]: 87.9%
- viability, T/C [32]: 67.9%
- viability, T/C [33]: 60.5%
- viability, T/C [34]: 65.8%
- viability, T/C [35]: 46.3%
- viability, T/C [36]: 30.5%
